Experimental data from patent US20250066347A1, “SUBSTITUTED THIAZOLIDINEDIONE DERIVATIVE COMPOUND, AND PHARMACEUTICAL COMPOSITION FOR PREVENTING OR TREATING CANCER, COMPRISING SAME” (MEDIFIC, INC., priority 2021, published 2025).
Values joined by “and” are separate entries in the source; they are usually repeats but may differ in a detail not shown here. Identical values can stand only once. Like-named read-outs stand apart in the source and are kept apart here.

Key:
SREBP = experiment: Cell-based assay system using a 6xSRE reporter vector (copGFP intensity) in HOG-GSC-6xSRE-copGFP_HIGH cells; parameters: dose or concentration left out as unconfirmed; conditions: copGFP intensity normalized to DMSO control = 1, 72 hours
Description: First, as shown in (a) of FIG. 1, SRE(5′-ATCACCCCAC-3′) 6 copies which are DNA seCuences to which a transcription factor, SREBP active form bonds were inserted into a minimal CMV promoter 5′ front end of a pGreenfire-Lenti-reporter vector to produce a 6xSRE reporter vector. The 6xSRE reporter vector is a vector system in which a minimal CMV promoter is activated only when SREBP in an activated form bonds to 6xSRE and copGFP is expressed, and after the vector was introduced to HOG-GSC which is a brain tumor stem cell, separation into a GFP high cell and a GFP low cell through FACS sorting was performed. Each of SREBP1a and SREBP1c in an active form was overexpressed in separated GFP-low cells (b of FIG. 1), and it was measured therefrom whether the expression amount of GFP was increased. As a result, it was confirmed that the overexpression of SREBP1a and SREBP1c active forms increased GFP expression by 43.30% and 93.49%, in separated GFP-low cells (c of FIG. 1). The separated GFP-high cells were treated with each of fatostatin and FGH10019 known to inhibit activity of DMSO and SREBP which was a control group to measure a change in the expression amount of GFP, and, as a result, it was confirmed that when treated with known materials, fatostatin and FGH10019, the expression of GFP was inhibited by up to 50% (d of FIG. 1).
HOG-GSC-6xSRE-copGFP_HIGH cells were dispensed into a 96-well plate (Corning) at 5000/well, each well was treated […], and then all wells were photographed every 3 hours for 72 hours in an incubator (ThermoFisher) at […], 5% CO2, using real-time cell imaging equipment (Incucyte) to photograph changes in copGFP intensity.

HOG-GSC = experiment: Cell viability analysis depending on the concentration of Compound 11; assay type: cell-based; conditions: 0.078-20 μM, 72 hours
Protocol: HOG-GSC which is a brain tumor stem cell was seeded on a 96-well plate at 5000 cells/well, treated with Compound 11 (Example 11) at concentrations of 20 μM, 10 μM, 5 μM, 2.5 μM, 1.25 μM, 0.625 μM, 0.312 μM, 0.156 μM, and 0.078 μM repeatedly 3 times after 24 hours, and treated with the same volume of DMSO as a control group repeatedly 3 times. After the treatment, cells were cultured for 72 hours in an incubator (ThermoFisher) at 37° C., 5% Co2. Thereafter, since there were many living cells in each well, the cell viability depending on the concentration of Compound 11 (Example 11) was compared using a cell viability assay kit (LPS solution) of which the color becomes darker with an increase in the number of cells. Further, absorbance at 450 nm was measured using a microplate reader (BioTek), and absorbance at each concentration was normalized based on the absorbance intensity of the control group of 1 and is shown in FIG. 4.

[1] = In vivo PK test, drug concentration in plasma after oral or intravenous administration; conditions: mouse
Protocol: • Experimental Drug: Compound 11 • Excipient: 10% DMSO, 75% PEG400, 15% saline 1.2. Experimental system • mouse, CRljOri:CD1(ICR), SPF 6 weeks old (7 weeks old at the time of administration) 1.3. Administration route • oral administration (PO), intravenous administration (IV) 1.4. Administration method and number of administration
After obtaining the mouse, the mouse was acclimatized for 5 days, and used in the experiment. An administration dose was 25 mg/kg by oral administration and 5 mg/kg by intravenous administration. A dosage for each individual was calculated based on the weight after fasting (on the day of administration), and the drug was orally administered once to an oral administration (PO) group using a disposable syringe (1 mL) with a zonde for oral administration attached, and intravenously administered to the tail vein of an intravenous administration (IV) group using a disposable syringe (1 mL).
About 0.3 mL of blood was collected from a jugular vein with a 1 mL syringe (25G) treated with 3.8% sodium citrate (about 30˜40 μl), placed in one microtube (QSP, 1.5 mL), and centrifuged at 12,000 RPM/3 min to collect plasma. The plasma was frozen and stored at −80° C. until analysis, and all animals of a pharmacokinetic experiment group were euthanized after completing the blood collection.
580 μl of acetonitrile (including internal standard) was added to 20 μl of plasma/tissue, and centrifugation was performed at 4° C. at 15,000 rpm for 5 minutes with vortexing. A supernatant obtained after the centrifugation was analyzed with LC-MS/MS.
PK parameter was calculated as a non-compartmental analysis model, using a phoenix WinNonlin 6.4 version (Pharsight, USA) program.

[2] = CRljOri:CD1(ICR), 25 mg/kg oral administration, plasma

## CC(C)(C)c1ccc(-c2cc(/C=C3\SC(=O)NC3=O)ccn2)cc1 [Compound 11, (Z)-5-((2-(4-(tert-butyl)phenyl)pyridin-4-yl)methylene)thiazolidine-2,4-dione]
SREBP
  activity: 4.6%
HOG-GSC
  cell viability of HOG-GSC compared with DMSO control: significantly decreased
  concentration dependence of HOG-GSC cell viability: decreased in proportion to the concentration
[1]; CRljOri:CD1(ICR), plasma, iv, 5 mg/kg, intravenous 5 mg/kg, 0.08 hr, read-out: Drug concentration in plasma, Average
  concentration at 0.08 h: 2560 ng/mL
[1]; CRljOri:CD1(ICR), plasma, iv, 5 mg/kg, intravenous 5 mg/kg, 0.08 hr, read-out: Drug concentration in plasma, Individual
  concentration at 0.08 h: 2820 ng/mL
[1]; CRljOri:CD1(ICR), plasma, iv, 5 mg/kg, intravenous 5 mg/kg, 0.25 hr, read-out: Drug concentration in plasma, Average
  concentration at 0.25 h: 2540 ng/mL
[1]; CRljOri:CD1(ICR), plasma, iv, 5 mg/kg, intravenous 5 mg/kg, 0.25 hr, read-out: Drug concentration in plasma, Individual
  concentration at 0.25 h: 2600 ng/mL
[1]; CRljOri:CD1(ICR), plasma, iv, 5 mg/kg, intravenous 5 mg/kg, 0.5 hr, read-out: Drug concentration in plasma, Average
  concentration at 0.5 h: 2260 ng/mL
[1]; CRljOri:CD1(ICR), plasma, iv, 5 mg/kg, intravenous 5 mg/kg, 0.5 hr, read-out: Drug concentration in plasma, Individual
  concentration at 0.5 h: 2790 ng/mL
[1]; CRljOri:CD1(ICR), plasma, iv, 5 mg/kg, intravenous 5 mg/kg, 1 hr, read-out: Drug concentration in plasma, Average
  concentration at 1 h: 2100 ng/mL
[1]; CRljOri:CD1(ICR), plasma, iv, 5 mg/kg, intravenous 5 mg/kg, 1 hr, read-out: Drug concentration in plasma, Individual
  concentration at 1 h: 2590 ng/mL
[1]; CRljOri:CD1(ICR), plasma, iv, 5 mg/kg, intravenous 5 mg/kg, 2 hr, read-out: Drug concentration in plasma, Average
  concentration at 2 hr: 1570 ng/mL
[1]; CRljOri:CD1(ICR), plasma, iv, 5 mg/kg, intravenous 5 mg/kg, 2 hr, read-out: Drug concentration in plasma, Individual
  concentration at 2 hr: 1130 ng/mL
[1]; CRljOri:CD1(ICR), plasma, iv, 5 mg/kg, intravenous 5 mg/kg, 4 hr, read-out: Drug concentration in plasma, Average
  concentration at 4 h: 1280 ng/mL
[1]; CRljOri:CD1(ICR), plasma, iv, 5 mg/kg, intravenous 5 mg/kg, 4 hr, read-out: Drug concentration in plasma, Individual
  concentration at 4 h: 1050 ng/mL
[1]; CRljOri:CD1(ICR), plasma, iv, 5 mg/kg, intravenous 5 mg/kg, 6 hr
  concentration at 6 h: 652 ng/mL
[1]; CRljOri:CD1(ICR), plasma, iv, 5 mg/kg, intravenous 5 mg/kg, 8 hr, read-out: Drug concentration in plasma, Average
  concentration at 8 h: 575 ng/mL
[1]; CRljOri:CD1(ICR), plasma, iv, 5 mg/kg, intravenous 5 mg/kg, 8 hr, read-out: Drug concentration in plasma, Individual
  concentration at 8 h: 424 ng/mL
[1]; CRljOri:CD1(ICR), plasma, iv, 5 mg/kg, intravenous 5 mg/kg, 24 hr, BQL = <1 ng/ml, ND = not detectable, read-out: Drug concentration in plasma, Individual
  concentration at 24 h: 1.9 ng/mL
[1]; CRljOri:CD1(ICR), plasma, iv, 5 mg/kg, intravenous 5 mg/kg, 24 hr, read-out: Drug concentration in plasma, Average
  concentration at 24 h: 1.8 ng/mL
[1]; CRljOri:CD1(ICR), plasma, po, 25 mg/kg, oral 25 mg/kg, 0.25 hr, read-out: Drug concentration in plasma, Average
  concentration at 0.25 h: 2910 ng/mL
[1]; CRljOri:CD1(ICR), plasma, po, 25 mg/kg, oral 25 mg/kg, 0.5 hr, read-out: Drug concentration in plasma, Average
  concentration at 0.5 h: 4420 ng/mL
[1]; CRljOri:CD1(ICR), plasma, po, 25 mg/kg, oral 25 mg/kg, 1 hr, read-out: Drug concentration in plasma, Average
  concentration at 1 h: 3770 ng/mL
[1]; CRljOri:CD1(ICR), plasma, po, 25 mg/kg, oral 25 mg/kg, 2 hr
  concentration at 2 h: 3870 ng/mL
[1]; CRljOri:CD1(ICR), plasma, po, 25 mg/kg, oral 25 mg/kg, 4 hr, read-out: Drug concentration in plasma, Average
  concentration at 4 h: 3540 ng/mL
[1]; CRljOri:CD1(ICR), plasma, po, 25 mg/kg, oral 25 mg/kg, 6 hr
  concentration at 6 h: 5440 ng/mL
[1]; CRljOri:CD1(ICR), plasma, po, 25 mg/kg, oral 25 mg/kg, 8 hr, read-out: Drug concentration in plasma, Average
  concentration at 8 h: 5020 ng/mL
[1]; CRljOri:CD1(ICR), plasma, po, 25 mg/kg, oral 25 mg/kg, 8 hr, read-out: Drug concentration in plasma, Individual
  concentration at 8 h: 3930 ng/mL
[1]; CRljOri:CD1(ICR), plasma, po, 25 mg/kg, oral 25 mg/kg, 24 hr, BQL = <1 ng/ml, read-out: Drug concentration in plasma, Individual
  concentration at 24 h: 4.1 ng/mL
[1]; CRljOri:CD1(ICR), plasma, po, 25 mg/kg, oral 25 mg/kg, 24 hr, read-out: Drug concentration in plasma, Average
  concentration at 24 h: 3.6 ng/mL
[1]; CRljOri:CD1(ICR), plasma, 25 mg/kg oral compared with 5 mg/kg intravenous, read-out: bioavailability (BA)
  bioavailability: 62.4%
[1]; [2]
  AUC(0-t): 39400 ng·h/mL
  Cmax: 5040 ng/mL
  Tmax: 1.6 h
  half-life: 3.9 h
[1]; intravenous 5 mg/kg, 0.08 hr, 5 mg/kg
  Drug concentration in plasma, Individual: 2800.0 ng/mL and 1900.0 ng/mL and 2700.0 ng/mL
[1]; intravenous 5 mg/kg, 0.25 hr, 5 mg/kg
  Drug concentration in plasma, Individual: 2240.0 ng/mL and 2890.0 ng/mL and 2430.0 ng/mL
[1]; intravenous 5 mg/kg, 0.5 hr, 5 mg/kg
  Drug concentration in plasma, Individual: 1890.0 ng/mL and 2360.0 ng/mL and 2000.0 ng/mL
[1]; intravenous 5 mg/kg, 1 hr, 5 mg/kg
  Drug concentration in plasma, Individual: 1780.0 ng/mL and 2380.0 ng/mL and 1630.0 ng/mL
[1]; intravenous 5 mg/kg, 2 hr, 5 mg/kg
  Drug concentration in plasma, Individual: 1420.0 ng/mL and 2240.0 ng/mL and 1480.0 ng/mL
[1]; intravenous 5 mg/kg, 4 hr, 5 mg/kg
  Drug concentration in plasma, Individual: 1410.0 ng/mL and 1400.0 ng/mL and 1260.0 ng/mL
[1]; intravenous 5 mg/kg, 6 hr, 5 mg/kg
  Drug concentration in plasma, Individual: 476.0 ng/mL and 491.0 ng/mL and 1080.0 ng/mL and 561.0 ng/mL
[1]; intravenous 5 mg/kg, 8 hr, 5 mg/kg
  Drug concentration in plasma, Individual: 614.0 ng/mL and 618.0 ng/mL and 644.0 ng/mL
[1]; intravenous 5 mg/kg, 24 hr, BQL = <1 ng/ml, ND = not detectable, 5 mg/kg
  Drug concentration in plasma, Individual: 1.7 ng/ml and BQL
[1]; oral 25 mg/kg, 0.25 hr, 25 mg/kg
  Drug concentration in plasma, Individual: 3210.0 ng/mL and 2230.0 ng/mL and 4300.0 ng/mL and 2000.0 ng/mL
[1]; oral 25 mg/kg, 0.5 hr, 25 mg/kg
  Drug concentration in plasma, Individual: 3590.0 ng/mL and 2340.0 ng/mL and 4750.0 ng/mL and 7010.0 ng/mL
[1]; oral 25 mg/kg, 1 hr, 25 mg/kg
  Drug concentration in plasma, Individual: 4140.0 ng/mL and 2380.0 ng/mL and 2070.0 ng/mL and 6490.0 ng/mL
[1]; oral 25 mg/kg, 2 hr, 25 mg/kg
  Drug concentration in plasma, Individual: 3270.0 ng/mL and 2030.0 ng/mL and 4100.0 ng/mL and 6070.0 ng/mL
[1]; oral 25 mg/kg, 4 hr, 25 mg/kg
  Drug concentration in plasma, Individual: 2020.0 ng/mL and 4420.0 ng/mL and 2930.0 ng/mL and 4810.0 ng/mL
[1]; oral 25 mg/kg, 6 hr, 25 mg/kg
  Drug concentration in plasma, Individual: 7260.0 ng/mL and 8180.0 ng/mL and 2630.0 ng/mL and 3680.0 ng/mL
[1]; oral 25 mg/kg, 8 hr, 25 mg/kg
  Drug concentration in plasma, Individual: 4120.0 ng/mL and 4850.0 ng/mL and 7180.0 ng/mL
[1]; oral 25 mg/kg, 24 hr, BQL = <1 ng/ml, 25 mg/kg
  Drug concentration in plasma, Individual: BQL and 2.5 ng/ml and 4.1 ng/ml
